This note sets out measurements from PMC10288505, “Photoswitchable Calixarene Activators for Controlled Peptide Transport across Lipid Membranes” (Journal of the American Chemical Society, 2023).

The subject of one assay is R3. Put plainly: Indicator displacement assay with host:LCG reporter pair, guest R3. The assay is classed as binding. The conditions noted are these: association constant, competitive dye displacement with LCG, 5 mM phosphate buffer pH 7.3, mean ± SD of triplicate. An excerpt: The binding affinity of the anionic calixarene activators toward cationic peptides was investigated using a small library of highly hydrophilic oligoarginines, from 3 to 8 residues. These peptides are not able to spontaneously transverse zwitterionic artificial membranes in vesicle assays, which allows the accurate evaluation of the calixarenes 1 and 2 as counterion activators without interferences from the transport of the peptide alone.[43]−[45] First, the formation of host–guest complexes between 1/2 and the selected peptides was verified by indicator displacement assays using lucigenin (LCG) as the fluorescent indicator.[46] As previously reported for other sulfonatocalixarene derivatives,[46] the formation of host–guest binding pairs between calixarenes 1/2 in the E- and Z-forms and LCG results in significant static fluorescence quenching (see Figure 2A and Figures S26 and S27). Quantitative analysis of the fluorescence titration data using a 1:1 host:guest binding model allows the determination of the respective binding constants (K) reported in Table 1. As can be observed, both 1/2 display high affinity for the LCG dye, on the 10^7 M^–1 range, which seems to be independent of the nature and conformation of the azobenzene arm. […] The host:LCG binding pairs were then employed in the above-mentioned indicator displacement assays to investigate the binding affinity of oligoarginines toward 1 and 2 (see Figure 2B and Figures S29–S33).
The binding affinities of the counterion activators and peptide complexes were analyzed by indicator displacement assays. The fluorescent dye chosen for these experiments was lucigenin (LCG) due to its complex with the receptor SC4 being well characterized and due to the high variation of emission between its bound and free form. Firstly, the affinity for LCG was calculated for each of the activators, by titrations followed by fluorescence spectroscopy leading to almost full quenching of the emission. For the competitive assays, a concentration of LCG and activator was chosen in order to have approximately 90% of complexed dye and that mixture was then titrated with each of the peptides, leading to the regaining of emission when LCG was release from the complex.
Figure S26 - Fluorescence titration of the lucigenin dye with increasing concentrations of A) E-1 and B) Z–1 in water (5 mM phosphate buffer pH 7.3). LCG concentration was fixed 0.2 µM in all experiments, except for the first E-1 titrations were [LCG]
(1 picture or pasted object on this page, not shown here)
Figure S29 - Indicator displacement titration of the several oligoarginines A) R3 B) R4 C) R6 and D) R8, using SC4:LCG as the reporter pair (5 mM phosphate buffer pH 7.3). LCG and SC4 concentrations were fixed at A) 0.22 and 0.50 µM, for all three replicates, B) 0.22 and 4.7 µM for the first titration and 0.22 and 4.3 µM for the remaining two replicates, C) 0.22 and 0.45 µM and 1.1 and 0.85 µM and D) 0.28 and 0.43 µM and 1.1 and 0.85 µM, respectively, from left to right.
Figure S30 - Indicator displacement titration of the several oligoarginines A) R3 B) R4 C) R6 and D) R8, using E-1:LCG as the reporter pair (5 mM phosphate buffer pH 7.3) LCG and E-1 concentrations were fixed at A) 0.11 and 0.25 µM, for all three replicates, B) 0.22 and 0.5 µM, for the first two titrations and 0.22 and 0.23 µM for the remaining replicate, C) 4.0 and 3.8 µM and 0.22 and 0.5 µM, D) 4 and 3 µM and 0.22 and 0.5 µM, respectively, from left to right. […]

Assay [1] can be described thus: Light-modulated CF dye efflux assay (in situ irradiation at 500 nm). The assay is classed as biochemical. The procedure:
To this aim, Z-1 and Z-2 were added to EYPC-LUV⊃CF dispersions at fixed concentrations to study the CF release upon in situ light stimulation. […] Irradiation with 500 nm light promotes the conversion of Z-2 into E-2, a stronger counterion activator, leading to ca. 50% of extra dye released as a result of the light-triggered translocation of R6 into the liposome (Figure 4 iii).
Figure 4 (A) Light-modulated dye efflux assays performed with 4 μM R6, 60 nM Z-2, and 15 μΜ EYPC-LUV⊃CF (50 mM CF inside the liposome) and (B) schematization of each phase in the assay. (i) First, the activator Z-2 was added to a liposome solution (ii) followed by the addition of the peptide. (iii) The same sample was irradiated for 25 min at 500 nm, leading to a significant increase in CF release. (iv) Finally, in order to normalize the measurement for the maximum emission possible, the vesicles were lysed by addition of a small aliquot of Triton X-100. […]
until the emission stabilizes and a maximum of release is reached. If the counterion activator has the capacity to activate the transport, CF should be co-transported to the exterior of the liposome with the influx of the counterion-peptide complex. Finally, Triton X-100 is added to the solution to dissolve the vesicles and obtain the maximum amount of CF that could be released from the liposomes and emit in the […]
EC50 and Ymax values were calculated from the values of corrected emission at the plateau that is reached, according to previously reported assays.7
Light-activated release assays. The light-modulation offered by this novel counterion activator was tested by performing dye efflux assays as previously described, with the addition of an interval in the measurement where the solution was irradiated at 500 nm. […]
Figure S44 - Light-modulated dye efflux assays done with the peptide A) R6, 4 µM, and B) R8, 5 µM, with a fixed concentration of Z-1 of 0.20 µM for both assays. 40 µM of EYPC-LUV and 20 µΜ EYPC-LUV⊃CF (50 mM of CF) were used in the first assay and 30 µM of EYPC-LUV and 7 µΜ EYPC-LUV⊃CF (50 mM of CF) were used in the latter. The assay was performed in the same way as the dye release assays (addition of the peptide marked with a red dashed arrow) with an additional irradiation step for an interval of 30 to 40 min (marked with a black arrow), leading to an increase in release of ~15% for the peptide R6 and only 7% for the peptide R8. […]
Figure S45 - Light-modulated dye efflux assay done with the peptide R8, 4 µM, with a fixed concentration of Z-2 of 16 nM. 15 µΜ of EYPC-LUV⊃CF (50 mM of CF) were used and the light activation step was done with a single 25 min irradiation cycle at 500 nm (marked with a black arrow). The increase of release obtained was of 14%. […]

Take `O=S(=O)([O-])c1cc2c(O)c(c1)Cc1cc(S(=O)(=O)[O-])cc(c1O)Cc1cc(S(=O)(=O)[O-])cc(c1OCCCCCCOc1ccc(/N=N/c3ccccc3)cc1)Cc1cc(S(=O)(=O)[O-])cc(c1O)C2.[Li+].[Li+].[Li+].[Li+]` [E-1]: the “Apparent affinity constant K for R3” value with R3 was “(2.6 ± 0.8) × 10^6 M^–1”.

For the molecule `CCCCc1ccc(/N=N/c2ccc(OCCCOc3c4cc(S(=O)(=O)[O-])cc3Cc3cc(S(=O)(=O)[O-])cc(c3O)Cc3cc(S(=O)(=O)[O-])cc(c3O)Cc3cc(S(=O)(=O)[O-])cc(c3O)C4)cc2)cc1.[Li+].[Li+].[Li+].[Li+]` [E-2], the “Apparent affinity constant K for R3” value in the assay on R3 is on record as “(4.1 ± 0.2) × 10^6 M^–1”.

As for `O=S(=O)([O-])c1cc2c(O)c(c1)Cc1cc(S(=O)(=O)[O-])cc(c1O)Cc1cc(S(=O)(=O)[O-])cc(c1OCCCCCCOc1ccc(/N=N\c3ccccc3)cc1)Cc1cc(S(=O)(=O)[O-])cc(c1O)C2.[Li+].[Li+].[Li+].[Li+]` [Z-1], in the assay with R3, the “Apparent affinity constant K for R3” value is listed as “(2.4 ± 0.6) × 10^6 M^–1”. The “Increase in CF release upon irradiation, R6” value in assay [1] (4 µM R6, 0.20 µM Z-1, 40 µM EYPC-LUV and 20 µM EYPC-LUV⊃CF (50 mM CF), irradiation 30 to 40 min at 500 nm) is reported as ~ 15%. Further, the “Increase in CF release upon irradiation, R8” value in assay [1] (5 µM R8, 0.20 µM Z-1, 30 µM EYPC-LUV and 7 µM EYPC-LUV⊃CF (50 mM CF), irradiation 30 to 40 min at 500 nm) is given as 7%.

In the case of `CCCCc1ccc(/N=N\c2ccc(OCCCOc3c4cc(S(=O)(=O)[O-])cc3Cc3cc(S(=O)(=O)[O-])cc(c3O)Cc3cc(S(=O)(=O)[O-])cc(c3O)Cc3cc(S(=O)(=O)[O-])cc(c3O)C4)cc2)cc1.[Li+].[Li+].[Li+].[Li+]` [Z-2], in the assay on R3, the “Apparent affinity constant K for R3” value was “(3.6 ± 0.3) × 10^6 M^–1”. In assay [1] (4 μM R6, 60 nM Z-2, 15 μM EYPC-LUV⊃CF (50 mM CF), irradiated 25 min at 500 nm), the “Extra dye released upon irradiation at 500 nm, R6” value is reported as “ca. 50%”. Also, the “Increase in CF release upon irradiation, R8” value in assay [1] (4 µM R8, 16 nM Z-2, 15 µM EYPC-LUV⊃CF (50 mM CF), single 25 min irradiation cycle at 500 nm) is 14%.
